According to US8653096B2, “Chemokine receptor antagonists and methods of use thereof” (Millennium Pharmaceuticals, Inc., priority 2001, dated 2014):

Target: T1, RANTES/MIP-1α chemokine receptor (CCR1) in THP-1 cell membranes (Homo sapiens, UniProt P32246)
T1 construct: Membranes were prepared from THP-1 cells (ATCC #TIB202); host or cells: THP-1 cells (membrane preparation)
T1 sequence (P32246 1-355): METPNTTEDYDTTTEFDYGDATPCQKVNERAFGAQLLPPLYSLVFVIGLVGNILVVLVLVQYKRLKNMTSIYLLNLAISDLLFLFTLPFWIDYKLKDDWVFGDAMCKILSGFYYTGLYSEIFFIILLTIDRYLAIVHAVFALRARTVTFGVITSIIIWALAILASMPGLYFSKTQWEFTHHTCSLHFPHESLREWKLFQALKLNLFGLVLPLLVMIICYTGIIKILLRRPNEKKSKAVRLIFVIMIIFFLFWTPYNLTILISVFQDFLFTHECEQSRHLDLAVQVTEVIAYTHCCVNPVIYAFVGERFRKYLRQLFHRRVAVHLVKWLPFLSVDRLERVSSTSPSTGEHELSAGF
Experiment: Receptor binding assay: 125I-RANTES or 125I-MIP-1α binding to THP-1 cell membranes
Settings: not given

| Compound | IC50 [µM] |
| --- | --- |
| CC(C)(O)c1ccc2c(c1)C(=CCCN1CCC(Nc3ccc(Cl)cc3)(C(N)=O)CC1)c1cccnc1CO2 [Example 466, 4-(4-Chloro-phenylamino)-1-{3-[7-(1-hydroxy-1-methyl-ethyl)-11H-10-oxa-1-aza-dibenzo[a,d]cyclohepten-5-ylidene]-propyl}-piperidine-4-carboxylic acid amide] | < 50 |

Same assay, conditions: inhibitor concentration required for 50% inhibition of specific binding; 125I-RANTES or 125I-MIP-1α as ligand, THP-1 cell membranes; read-out: IC50

| Compound | IC50 [µM] |
| --- | --- |
| CCOC(=O)COc1ccc2c(c1)C(=CCCN1CCC(c3ccc(Cl)cc3)CC1)c1cccnc1CO2 [Example 153, 4-(4-Chlorophenyl)-1-[3-(5,11-dihydro-7-thoxycarbonylmethyloxy[1]benzoxepino[2,3-b]pyridin-5-ylidene)propyl]piperidine] | < 1 |
| CC(C)(O)c1ccc2c(c1)C(=CCCN1CCC(O)(c3ccc(Cl)cc3)C(N=[N+]=[N-])C1)c1cccnc1CO2 (stereo not shown) [Example 476, 3-Azido-4-(4-chloro-phenyl)-1-{3-[7-(1-hydroxy-1-methyl-ethyl)-11H-10-oxa-1-aza-dibenzo[a,d]cyclohepten-5-ylidene}-propyl}-piperidin-4-ol] | < 1 |
| CC(C)(O)c1ccc2c(c1)C(=CCCN1CC[C@H](OCc3ccc(Cl)cc3)C1)c1cccnc1CO2 [Example 529, (S)-2-(5-{3-[3-(4-Chloro-benzyloxy)-pyrrolidin-1-yl]-propylidene}-5,11-dihydro-10-oxa-1-aza-dibenzo[a,d]cyclohepten-7-yl)-propan-2-ol] | < 20 |
| CC1CN(CCC=C2c3cc(C(C)(C)O)ccc3OCc3ncccc32)CCC1(F)c1ccc(Cl)cc1 (stereo not shown) [Example 469, 2-(5-{3-[4-(4-Chloro-phenyl)-4-fluoro-3-methyl-piperidin-1-yl]-propylidene}-5,11-dihydro-10-oxa-1-aza-dibenzo[a,d]cyclohepten-7-yl)-propan-2-ol] | < 1 |
| COC(=O)COc1ccc2c(c1)C(=CCCN1CCC(O)(c3ccc(Cl)cc3)C(C)(C)C1)c1cccnc1CO2 (stereo not shown) [Example 514, (5-{3-[4-(4-Chloro-phenyl)-4-hydroxy-3,3-dimethyl-piperidin-1-yl]-propylidene}-5,11-dihydro-10-oxa-1-aza-dibenzo[a,d]cyclohepten-7-yloxy)-acetic acid methyl ester] | < 1 |
| 4-(4-Chlorophenyl)-1-[3-(5,11-dihydro-7-phenyl[1]benzoxepino[2,3-b]pyridin-5-ylidene)propyl]piperidin-4-ol [Example 291] | < 1 |
| 4-(3,4-difluorophenyl)-1-[3-(5,11-dihydro-7-methoxy[1]benzoxepino[2,3-b]pyridin-5-ylidene)propyl]piperidin-4-ol [Example 144] | < 1 |
| CC(C)(O)c1ccc2c(c1)C(=CCCN1CC[C@](O)(c3ccc(Cl)cc3)[C@H](C#N)C1)c1cccnc1CO2 (relative stereo) [Example 479, Trans-4-(4-Chloro-phenyl)-4-hydroxy-1-{3-[7-(1-hydroxyl-1-methyl-ethyl)-11H-10-oxa-1-aza-dibenzo[a,d]cyclohepten-5-ylidene]-propyl}-piperidin-3-carbonitrile] | < 1 |
| 4-(4-Chlorophenyl)-1-[3-(5,11-dihydro-7-(1-butoxy)carbonyl-[1]benzoxepino[2,3-b]pyridin-5-ylidene) propyl]piperidine-4-ol [Example 427] | < 1 |
| CCOc1ccc2c(c1)C(=CCCN1CCC(O)(c3ccc(Cl)cc3)CC1)c1ccccc1CO2 [Example 34, 4-(4-Chlorophenyl)-1-[3-(6,11-dihydro-2-ethoxydibenz[b,e]oxepin-11-ylidene)propyl]piperidin-4-ol] | < 1 |
| CC1(C)CN(CCC=C2c3cc(OCCO)ccc3OCc3ncccc32)CCC1(O)c1ccc(Cl)cc1 (stereo not shown) [Example 507, 4-(4-Chloro-phenyl)-1-{3-[7-(2-hydroxy-ethoxy)-11H-10-oxa-1-aza-dibenzo[a,d]cyclohepten-5-ylidene]-propyl}-3,3-dimethyl-piperidin-4-ol] | < 1 |
| 4-(4-Chlorophenyl)-1-[3-(5,11-dihydro-7-hydroxy [1]benzoxepino[2,3-b]pyridin-5-ylidene)propyl]piperidin-4-ol [Example 44] | < 1 |
| CCCCC(CC)C(=O)N(Cc1ccc(Cl)cc1)C1CCN(CCC=C2c3cc(C(C)(C)O)ccc3OCc3ncccc32)C1 (stereo not shown) [Example 566, 2-Ethyl-hexanoic acid (4-chloro-benzyl)-(1-{3-[7-(1-hydroxy-1-methyl-ethyl)-11H-10-oxa-1-aza-dibenzo[a,d]cyclohepten-5-ylidene]-propyl}-pyrrolidin-3-yl)-amide] | < 20 |
| CCN1C(=O)c2ccccc2C(=CCCN2CCC(O)(c3ccc(Cl)cc3)CC2)c2ccccc21 [Example 40, 4-(4-Chlorophenyl)-1-[3-(6,11-dihydro-5-ethyl-6-oxo-5H-dibenz[b,e]azepin-11-ylidene)propyl]piperidin-4-ol] | < 1 |
| 1-[3-(7-(2-Carboxy)ethenyl-5,11-dihydro[1]benzoxepino[2,3-b]pyridin-5-ylidene)propyl]-4-(4-chlorophenyl)piperidin-4-ol [Example 172] | < 1 |
| 4-(4-Chlorophenyl)-1-[3-(5,11-dihydro-7-(1-ethoxycarbonyl-1-methylethyl)oxy[1]benzoxepino[2,3-b]pyridin-5-ylidene)propyl]piperidin-4-ol [Example 138] | < 1 |
| Cc1cc(Cl)ccc1N1CCN(CCC=C2c3cc(C(C)(C)O)ccc3OCc3ncccc32)CC1 [Example 539, 2-(5-{3-[4-(4-Chloro-2-methyl-phenyl)-piperazin-1-yl]-propylidene}-5,11-dihydro-10-oxa-1-aza-dibenzo[a,d]cyclohepten-7-yl)-propan-2-ol] | < 10 |
| 1-[3-(5,11-Dihydro-7-methoxy[1]benzoxepino[2,3-b]pyridin-5-ylidene)propyl]-4-phenylpiperidine [Example 64] | < 1 |
| CC(C)(C)OC(=O)CN1C(=O)c2ccccc2C(=CCCN2CCC(O)(c3ccc(Cl)cc3)CC2)c2ccccc21 [Example 43, 1-[3-(5-tert-Butoxycarbonymethyl-6,11-dihydro-6-oxo-5H-dibenz[b,e]azepin-11-ylidene)propyl]-4-(4-chlorophenyl)-piperidin-4-ol] | < 10 |
| 1-[3-(5,11-Dihydro-7-methoxy[1]benzoxepino[2,3-b]pyridin-5-ylidene)propyl]-4-(3-pyridyl)piperidin-4-ol [Example 148] | < 10 |
| CC(C)(O)c1ccc2c(c1)C(=CCCN1CCC(Oc3ccccc3Cl)CC1)c1cccnc1CO2 [Example 495, 2-(5-{3-[4-(2-Chloro-phenoxy)-piperidin-1-yl]-propylidene}-5,11-dihydro-10-oxa-1-aza-dibenzo[a,d]cyclohepten-7-yl)-propan-2-ol] | < 1 |
| CC(C)(O)c1ccc2c(c1)C(=CCCN1CCC(C(=O)c3ccc(Cl)cc3)CC1)c1cccnc1CO2 [Example 496, (4-Chloro-phenyl)-(1-{3-[7-(1-hydroxy-1-methyl-ethyl)-11H-10-oxa-1-aza-dibenzo[a,d]cyclohepten-5-ylidene]-propyl}-piperidin-4-yl)-methanone] | < 10 |
| CC(=O)OCCOc1ccc2c(c1)C(=CCCN1CCC(O)(c3ccc(Cl)cc3)C(C)(C)C1)c1cccnc1CO2 (stereo not shown) [Example 506, Acetic acid 2-(5-{3-[4-(4-chloro-phenyl)-4-hydroxy-3,3-dimethyl-piperidin-1-yl]-propylidene}-5,11-dihydro-10-oxa-1-aza-dibenzo[a,d]cyclohepten-7-yloxy)-ethyl ester] | < 1 |
| 4-(4-Chlorophenyl)-1-[3-(5,11-dihydro-7-(2-morpholinoethyl)oxy[1]benzoxepino[2,3-b]pyridin-5-ylidene)propyl]piperidin-4-ol [Example 52] | < 1 |
| CC(C)C(=O)N(Cc1ccc(Cl)cc1)C1CCN(CCC=C2c3cc(C(C)(C)O)ccc3OCc3ncccc32)C1 (stereo not shown) [Example 562, N-(4-Chloro-benzyl)-N-(1-{3-[7-(1-hydroxy-1-methyl-ethyl)-11H-10-oxa-1-aza-dibenzo[a,d]cyclohepten-5-ylidene]-propyl}-pyrrolidin-3-yl)-isobutyramide] | < 10 |
| 1-[3-(5,11-Dihydro-7-methoxy[1]benzoxepino[2,3-b]pyridin-5-ylidene)propyl]-4-piperidinopiperidine [Example 66] | < 1000 |
| COC1(c2ccc(Cl)cc2)CCN(CCC=C2c3cc(C(C)(C)O)ccc3OCc3ncccc32)CC1(C)O (stereo not shown) [Example 473, 4-(4-Chloro-phenyl)-1-{3-[7-(1-hydroxy-1-methyl-ethyl)-11H-10-oxa-1-aza-dibenzo[a,d]cyclohepten-5-ylidene]-propyl}-4-methoxy-3-methyl-piperidin-3-ol] | < 1 |
| CC(C)(O)c1ccc2c(c1)C(=CCCN1CC[C@@H](N(Cc3ccc(Cl)cc3)C(N)=O)C1)c1cccnc1CO2 [Example 533, (R)-1-(4-Chloro-benzyl)-1-(1-{3-[7-(1-hydroxy-1-methyl-ethyl)-11H-10-oxa-1-aza-dibenzo[a,d]cyclohepten-5-ylidene]-propyl}-pyrrolidin-3-yl)urea] | < 10 |
| O=C(O)c1ccc2c(c1)C(=CCCN1CCC(O)(c3ccc(Cl)cc3)CC1)c1ccccc1CO2 [Example 24, 1-[3-(2-Carboxyl-6,11-dihydrodibenz[b,e]oxepin-11-ylidene)propyl]-4-(4-chlorophenyl)piperidin-4-ol] | < 10 |
| 1-[3-(7-Carbamoylmethyl-5,11-dihydro[1]benzoxepino[2,3-b]pyridin-5-ylidene)propyl]-4-(4-chlorophenyl)-piperidin-4-ol [Example 281] | < 1 |
